Values quoted from earlier work in patent US20020013357A1, “Valdecoxib compositions” (priority 1999, published 2002).

## Cc1onc(-c2ccccc2)c1-c1ccc(S(N)(=O)=O)cc1 [Valdecoxib, 4-(5-methyl-3-phenyl-4-isoxazolyl)benzenesulfonamide]
  solubility in water: extremely low solubility in water
